# Assays:
# Sulfotransferase 1E1 [1] = target: T1, Sulfotransferase 1E1 (Homo sapiens, UniProt P49888); assay: Substrate activity at SULT1E1 (unknown origin) expressed in baculovirus infected Sf9 cells assessed as substrate Km incubated for 15 mins using [35S-]PAPS as sulfate donor by TLC analysis; settings: sf9, 0.25 h, BLD = below limit of detection
# T1 sequence (P49888 whole entry): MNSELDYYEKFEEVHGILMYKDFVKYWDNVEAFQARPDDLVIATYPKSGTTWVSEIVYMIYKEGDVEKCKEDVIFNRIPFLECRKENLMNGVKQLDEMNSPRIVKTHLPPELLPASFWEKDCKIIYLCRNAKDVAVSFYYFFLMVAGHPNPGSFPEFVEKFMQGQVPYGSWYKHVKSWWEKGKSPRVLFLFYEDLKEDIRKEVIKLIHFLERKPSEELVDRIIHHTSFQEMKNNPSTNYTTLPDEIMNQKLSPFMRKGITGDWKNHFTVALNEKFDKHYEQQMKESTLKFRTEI
# Sulfotransferase 1E1 [2] = target: T1, Sulfotransferase 1E1; assay: Substrate activity at SULT1E1 (unknown origin) expressed in baculovirus infected Sf9 cells assessed as substrate Vmax incubated for 15 mins using [35S-]PAPS as sulfate donor by TLC analysis; settings: sf9, 0.25 h, BLD = below limit of detection
# Sulfotransferase 1E1 [3] = target: T1, Sulfotransferase 1E1; assay: Substrate activity at SULT1E1 (unknown origin) expressed in baculovirus infected Sf9 cells assessed as substrate Vmax/Km ratio level incubated for 15 mins using [35S-]PAPS as sulfate donor by TLC analysis; settings: sf9, 0.25 h
# Sulfotransferase 2A1 [4] = target: T2, Sulfotransferase 2A1 (Homo sapiens, UniProt Q06520); assay: Substrate activity at SULT2A1 (unknown origin) expressed in baculovirus infected Sf9 cells assessed as substrate Km incubated for 15 mins using [35S-]PAPS as sulfate donor by TLC analysis; settings: sf9, 0.25 h, BLD = below limit of detection
# T2 sequence (Q06520 whole entry): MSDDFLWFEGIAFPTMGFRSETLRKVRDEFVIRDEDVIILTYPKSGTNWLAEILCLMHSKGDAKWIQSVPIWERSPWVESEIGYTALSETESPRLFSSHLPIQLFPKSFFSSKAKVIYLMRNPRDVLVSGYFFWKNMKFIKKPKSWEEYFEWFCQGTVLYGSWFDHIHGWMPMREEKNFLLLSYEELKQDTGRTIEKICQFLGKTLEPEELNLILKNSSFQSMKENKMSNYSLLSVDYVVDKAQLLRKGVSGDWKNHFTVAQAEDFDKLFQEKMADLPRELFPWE
# Sulfotransferase 2A1 [5] = target: T2, Sulfotransferase 2A1; assay: Substrate activity at SULT2A1 (unknown origin) expressed in baculovirus infected Sf9 cells assessed as substrate Vmax incubated for 15 mins using [35S-]PAPS as sulfate donor by TLC analysis; settings: sf9, 0.25 h, BLD = below limit of detection
# Sulfotransferase 2A1 [6] = target: T2, Sulfotransferase 2A1; assay: Substrate activity at SULT2A1 (unknown origin) expressed in baculovirus infected Sf9 cells assessed as substrate Vmax/Km ratio incubated for 15 mins using [35S-]PAPS as sulfate donor by TLC analysis; settings: sf9, 0.25 h, BLD = below limit of detection
# Sulfotransferase 1A1 [7] = target: T3, Sulfotransferase 1A1 (Homo sapiens, UniProt P50225); assay: Substrate activity at SULT1A1 (unknown origin) expressed in baculovirus infected Sf9 cells assessed as substrate Km incubated for 15 mins using [35S-]PAPS as sulfate donor by TLC analysis; settings: sf9, 0.25 h, BLD = below limit of detection
# Sulfotransferase 1A1 [8] = target: T3, Sulfotransferase 1A1; assay: Substrate activity at SULT1A1 (unknown origin) expressed in baculovirus infected Sf9 cells assessed as substrate Vmax incubated for 15 mins using [35S-]PAPS as sulfate donor by TLC analysis; settings: sf9, 0.25 h, BLD = below limit of detection
# Sulfotransferase 1A1 [9] = target: T3, Sulfotransferase 1A1; assay: Substrate activity at SULT1A1 (unknown origin) expressed in baculovirus infected Sf9 cells assessed as substrate Vmax/Km ratio incubated for 15 mins using [35S-]PAPS as sulfate donor by TLC analysis; settings: sf9, 0.25 h, BLD = below limit of detection
# [10] = Drug uptake in lung of Sprague-Dawley rat with lung inflammation assessed as sulfated form formation at 2 to 2.5 mCi dosed via injection measured after 10 to 15 mins post dose by microPET imaging method; type: ADME, organism-based; settings: in vivo
# [11] = Drug uptake in liver of smoker human subject at 10.5 mCi by microPET imaging method; type: ADME
# [12] = Drug uptake in kidney of smoker human subject at 10.5 mCi by microPET imaging method; type: ADME
# [13] = Drug uptake in lung of smoker human subject at 10.5 mCi by microPET imaging method; type: ADME
# [14] = Drug uptake in liver of non-smoker human subject at 10 mCi by microPET imaging method; type: ADME
# [15] = Drug uptake in kidney of non-smoker human subject at 10 mCi by microPET imaging method; type: ADME
# [16] = Drug uptake in lung of non-smoker human subject at 10 mCi by microPET imaging method; type: ADME
# T3 sequence (P50225 whole entry): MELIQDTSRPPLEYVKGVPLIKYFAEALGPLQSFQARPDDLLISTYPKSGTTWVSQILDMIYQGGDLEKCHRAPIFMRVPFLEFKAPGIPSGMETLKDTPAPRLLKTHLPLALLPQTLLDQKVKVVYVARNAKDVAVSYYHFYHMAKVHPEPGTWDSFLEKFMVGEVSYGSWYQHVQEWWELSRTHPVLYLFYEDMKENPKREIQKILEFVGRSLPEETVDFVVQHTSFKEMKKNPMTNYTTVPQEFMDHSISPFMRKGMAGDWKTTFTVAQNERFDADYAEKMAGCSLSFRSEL
Km (Sulfotransferase 2A1 [4]),Vmax (Sulfotransferase 2A1 [5]),Vmax/Km (Sulfotransferase 2A1 [6]),Vmax/Km (Sulfotransferase 1E1 [3]),Km (Sulfotransferase 1A1 [7]),Vmax (Sulfotransferase 1A1 [8]),Vmax/Km (Sulfotransferase 1A1 [9]),Compound,other results
Bld,Bld,Bld,–,–,–,–,Oc1ccc2cc[nH]c2c1,Km (Sulfotransferase 1E1 [1]): Bld; Vmax (Sulfotransferase 1E1 [2]): Bld; Vmax/Km (Sulfotransferase 1E1 [3]; BLD = below limit of detection): Bld
Bld,Bld,Bld,0.01,–,–,–,Oc1ccc2occc2c1,–
Bld,Bld,Bld,0.03,–,–,–,Oc1ccc2ccoc2c1,–
Bld,Bld,Bld,–,–,–,–,Oc1ccc2[nH]ccc2c1,Km (Sulfotransferase 1E1 [1]): Bld; Vmax (Sulfotransferase 1E1 [2]): Bld; Vmax/Km (Sulfotransferase 1E1 [3]; BLD = below limit of detection): Bld
Bld,Bld,Bld,2.69,Bld,Bld,Bld,CS(=O)(=O)c1ccc(-c2nc3ccc(O)cc3s2)cc1,–
Bld,Bld,Bld,0.87,Bld,Bld,Bld,CC(=O)Nc1ccc(-c2nc3ccc(O)cc3s2)cc1,–
Bld,Bld,Bld,0.08,–,–,–,Oc1ccc2sccc2c1,–
Bld,Bld,Bld,0.47,–,–,–,Cc1nc2ccc(O)cc2s1,–
Bld,Bld,Bld,0.3,–,–,–,Cc1nc2cc(O)ccc2s1,–
Bld,Bld,Bld,2.47,–,–,–,CN(C)c1ccc(-c2nc3cc(O)ccc3s2)cc1,–
Bld,Bld,Bld,0.006,–,–,–,Oc1ccc2ncoc2c1,–
Bld,Bld,Bld,2.19,Bld,Bld,Bld,COc1ccc(-c2nc3ccc(O)cc3s2)cc1,–
Bld,Bld,Bld,17.1,Bld,Bld,Bld,N#Cc1ccc(-c2nc3ccc(O)cc3s2)cc1,–
Bld,Bld,Bld,29.2,Bld,Bld,Bld,O=[N+]([O-])c1ccc(-c2nc3ccc(O)cc3s2)cc1,–
Bld,Bld,Bld,5.64,Bld,Bld,Bld,Oc1ccc2nc(-c3ccc(I)cc3)sc2c1,–
Bld,Bld,Bld,0.25,–,–,–,Oc1ccc2ccsc2c1,–
Bld,Bld,Bld,0.04,–,–,–,Oc1ccc2ncsc2c1,–
Bld,Bld,Bld,3.22,–,–,–,Oc1ccc2nc(-c3ccccc3)sc2c1,–
Bld,Bld,Bld,4.52,Bld,Bld,Bld,Oc1ccc2nc(-c3ccc(F)cc3)sc2c1,–
Bld,Bld,Bld,1.39,–,–,–,CNc1ccc(-c2nc3cc(O)ccc3s2)cc1,–
Bld,Bld,Bld,1.11,Bld,Bld,Bld,CN(C)c1ccc(-c2nc3ccc(O)cc3s2)cc1,–
Bld,Bld,Bld,1.7,Bld,Bld,Bld,Nc1ccc(-c2nc3ccc(O)cc3s2)cc1,–
Bld,Bld,Bld,1.28,Bld,Bld,Bld,CNc1ccc(-c2nc3ccc(O)cc3s2)cc1 [PITTSBURGH COMPOUND B UNLABELLED],–
–,–,–,–,–,–,–,[11CH3]Nc1ccc(-c2nc3ccc(O)cc3s2)cc1 [PITTSBURGH COMPOUND B],Drug uptake [10]: Active; Drug uptake [11]: Active; Drug uptake [12]: Active; Drug uptake [13]: Active; Drug uptake [14]: Active; Drug uptake [15]: Active; Drug uptake [16]: Active

Compound,Km (Sulfotransferase 2A1 [4]),Vmax (Sulfotransferase 2A1 [5]),Vmax/Km (Sulfotransferase 2A1 [6]),Vmax/Km (Sulfotransferase 1E1 [3]),Km (Sulfotransferase 1A1 [7]),Vmax (Sulfotransferase 1A1 [8]),Vmax/Km (Sulfotransferase 1A1 [9]),other results
Oc1ccc2[nH]cnc2c1,Bld,Bld,Bld,–,–,–,–,Km (Sulfotransferase 1E1 [1]): Bld; Vmax (Sulfotransferase 1E1 [2]): Bld; Vmax/Km (Sulfotransferase 1E1 [3]; BLD = below limit of detection): Bld
Oc1ccc2ccccc2c1 [BETANAPHTHOL],–,–,–,0.57,–,–,–,–

# From ChEMBL document CHEMBL4482315, “In vivo imaging of sulfotransferases” (2013)
